Patent US9463252B2, “Auristatin drug linker conjugates” (priority 2008, dated 2016)
Converted amounts (≈) assume the structure as drawn. Non-standard residues stand in square brackets, D forms with d. Residues, ends and D or L forms follow the SMILES beside them. *: point of attachment. Dolaproine = CO[C@@H]([C@@H]1CCCN1)[C@@H](C)C(=O)O; Hexanoyl(6-maleimido) = O=C1C=CC(=O)N1CCCCCC(=O)*; Dil = CC[C@H](C)[C@H](NC)[C@@H](CC(=O)O)OC; NMeV = CN[C@H](C(=O)O)C(C)C

Legend:
[1] = system: Ramos; test: Cytotoxicity of Auristatin-Peptide-hBU12 conjugates on CD19+ cells; type: cell-based; conditions: Table 11, ~4 drugs per antibody
Protocol: (§1) Following the procedure described as Examples 57 and 58, the activities of Auristatin-Peptide-cAC10 conjugates were evaluated on CD30^+ cells, such as Karpas 299, L428, and L540cy. The activities of Auristatin-Peptide-hBU12 conjugates were evaluated on CD19^+ cells such as Ramos, SUDHL-4, and ARH-77. The activities of Auristatin-Peptide-anti-LIV-1 conjugates were evaluated on LIV-1 positive cell lines MCF-7 and SKOV-3. The activities of Auristatin-Peptide-BR96 conjugates were evaluated on Le^y positive cells H3396, RCA, and L2987. All conjugates contain approximately 4 drugs per antibody.

[2] = system: ARH-77; test: as above; type: cell-based; conditions: Table 11, ~4 drugs per antibody
Protocol: as §1

[3] = system: SUDHL-4; test: as above; type: cell-based; conditions: Table 11, ~4 drugs per antibody
Protocol: as §1

[4] = system: H3396; test: Cytotoxicity of Auristatin-Peptide-BR96 conjugates on Le^y positive cells; type: cell-based; conditions: Table 11, ~4 drugs per antibody
Protocol: as §1

[5] = system: RCA; test: as above; type: cell-based; conditions: Table 11, ~4 drugs per antibody
Protocol: as §1

[6] = system: L2987; test: as above; type: cell-based; conditions: Table 11, ~4 drugs per antibody
Protocol: as §1

[7] = system: Karpas 299; test: Cytotoxicity of Auristatin-Peptide-cAC10 conjugates on CD30+ cells; type: cell-based, human
Protocol: (§2) Following the procedure described in Example 57, Auristatin-Dipeptide-cAC10 antibody conjugates were evaluated on CD30+ positive cell lines, Karpas 299, L428 and L540cy. In addition, a control conjugate, cAC10-vc-PABC-MMAF, was used. […] The conjugates contain approximately 4 drugs per antibody.
as §1

[8] = system: L540cy; test: as above; type: cell-based, human
Protocol: as §2, §1

[9] = system: SKOV-3; test: Cytotoxicity of Auristatin-Peptide-anti-LIV-1 conjugates on LIV-1 positive cells; type: cell-based; conditions: Table 11, ~4 drugs per antibody
Protocol: as §1

[10] = system: MCF-7; test: as above; type: cell-based; conditions: Table 11, ~4 drugs per antibody
Protocol: as §1

[11] = system: L428; test: Cytotoxicity of Auristatin-Peptide-cAC10 conjugates on CD30+ cells; type: cell-based
Protocol: as §2, §1

[12] = Tolerability (MTD) of conjugates in mice; type: in vivo, mouse; conditions: h1F6 conjugates, single dose 100 mg/kg
Protocol: The tolerability, measured as maximum tolerated dose (MTD), was determined in mice based on animals' weight loss after treatment. Animals were usually monitored for 14 days. A conjugate is considered to be tolerated at a determined dose if single iv treatment at such dose results in a transient weight loss of no more than 20% of initial body weight of animals and no other signs of toxicity are observed. […] AF-Met-(D)Lys and AF-Asn-(D)Lys conjugates were tolerated at doses as high as 100 mg/kg (FIG. 7). Corresponding conjugates of auristatins containing Methionine (AM) and Tryptophan (AW) at the C-terminal position of the drug were tolerated even better, up to 150 mg/kg (FIG. 8). […] Thus, the Auristatin-Dipeptide Drug Linkers provide ADCs with significant therapeutic window for therapeutic treatment (e.g., cancer).

[13] = system: HCT-116 (CD70−); test: Cytotoxicity of Auristatin-Peptide-h1F6 conjugates, CD70- control cell line; type: cell-based
Source text: (§3) The conjugates contain approximately 4 drugs per antibody.

[14] = system: UMRC-3; test: Cytotoxicity of Auristatin-Peptide-h1F6 conjugates, resazurin assay; type: cell-based
Source text: as §3

[15] = system: L428; test: as above; type: cell-based
Source text: as §3

[16] = system: U251; test: as above; type: cell-based; conditions: Table 4, ~4 drugs/Ab
Source text: as §3

[17] = system: Caki-1; test: as above; type: cell-based
Source text: as §3

[18] = system: LP-1; test: as above; type: cell-based, human
Source text: as §3

[19] = system: 786-O; test: as above; type: cell-based, human
Source text: as §3

[20] = system: CD70+ positive cell lines; conditions: h1F6 conjugates, ~4 drugs/Ab
Protocol: Cytotoxicity assays are usually carried out for 96 hours after addition of test compounds. Fifty μl of resazurin dye may be added to each well during the last 4 to 6 hours of the incubation to assess viable cells at the end of culture. Dye reduction can be determined by fluorescence spectrometry using the excitation and emission wavelengths of 535 nm and 590 nm, respectively. For analysis, the extent of resazurin reduction by the treated cells can be compared to that of the untreated control cells.

[21] = system: 786-O (renal cell) xenografts; conditions: mouse, ip
Protocol: The efficacy of AF-Dipeptide-h1F6 conjugates were evaluated in 786-O (renal cell) xenografts. AF-Dipeptide-h1F6 conjugates with an average of 4 drug moieties per antibody were used. 786-O cells were implanted subcutaneously into immunodeficient mice (5×10^6 cells per mouse). Tumor volumes are calculated using the formula (0.5×L×W^2) where L and W are the longer and shorter of two bidirectional measurements.
In a second study, the efficacies of additional Auristatin-Dipeptide-h1F6 conjugates were evaluated in 786-O (renal cell) xenografts. Auristatin-Dipeptide-h1F6 conjugates with an average of 4 drug moieties per antibody were used. 786-O cells were implanted subcutaneously into immunodeficient mice (5×10^6 cells per mouse). Tumor volumes are calculated using the formula (0.5×L×W^2), where L and W are the longer and shorter of two bidirectional measurements.

[22] = system: L540cy Hodgkin's lymphoma subcutaneous model; test: In vivo efficacy of cAC10 conjugates in lymphoma xenograft model; design: species or system mouse; conditions: FIG. 17, q4d×3 at 1 mg/kg, SCID mice
Protocol: The efficacy of selected Auristatin-Dipeptide-cAC10 conjugates having Stretcher units with aryl or alkyl maleimides were evaluated in L540cy Hodgkin's lymphoma subcutaneous model. Auristatin-Dipeptide-cAC10 conjugates with average of 4 drug moieties per antibody were used. L540cy cells were implanted subcutaneously into immunodeficient SCID mice (5×10^6 cells per mouse). […] Treatment was initiated when average size of tumors reached 100 mm^3. The treatment schedule was q4d×3 at 1 mg/kg.

[23] = system: Caki-2; test: Cytotoxicity of Auristatin-Peptide-h1F6 conjugates, resazurin assay; type: cell-based
Protocol: as §3
Following the procedure described as Examples 57 and 58, Auristatin-Peptide-h1F6 conjugates were evaluated on CD70^+ cell, such as 786-O, Caki-1, Caki-2, and L428. Conjugates contain approximately 4 drugs per antibody.

[24] = system: DoHH-2 follicular B-cell lymphoma subcutaneous model; test: In vivo efficacy of hBU12 conjugates in lymphoma xenograft model; design: species or system mouse; conditions: FIG. 16, q4d×4 at 3 mg/kg, SCID mice
Protocol: The efficacies of Auristatin-Dipeptide hBU12 conjugates with the aryl and alkyl-maleimide Stretcher units were evaluated in a DoHH-2 follicular B-cell lymphoma subcutaneous model. Auristatin-Dipeptide-hBU12 conjugates with average of 4 drug moieties per antibody were used. DoHH-2 cells were implanted subcutaneously into immunodeficient SCID mice (5×10^6 cells per mouse). […] Treatment was initiated when average size of tumors reached 100 mm^3; the treatment schedule was q4d×4 at 3 mg/kg.

[25] = system: CD30+, CD19+, LIV-1 positive and Le^y positive cells; test: In vitro activity of conjugates with cAC10, hBU12, anti-LIV-1 and BR96, overall statements; type: cell-based; conditions: conjugates with cAC10, hBU12, Anti-LIV-1, BR96; Table 11
Protocol: as §1

[26] = Table 11, ~4 drugs per antibody
[27] = Table 4, h1F6 conjugates, ~4 drugs/Ab
[28] = Table 7, h1F6 conjugates, AF vs MMAF
[29] = Table 8, h1F6 conjugates, D vs L amino acid in second linker position
[30] = Table 9, h1F6-Drug(4) conjugates, mono- vs dipeptide linker
[31] = Table 5, h1F6 conjugates, ~4 drugs/Ab
[32] = Table 10, h1F6-Drug(4) conjugates, aryl or alkyl maleimides

| Compound | IC50 Ramos [1] | IC50 ARH-77 [2] | IC50 SUDHL-4 [3] | IC50 H3396 [4] [ng/mL] | IC50 RCA [5] [ng/mL] | IC50 L2987 [6] [ng/mL] | IC50 Karpas 299 [7, 26] [ng/mL] | IC50 L540cy [8, 26] [ng/mL] | IC50 SKOV-3 [9] | IC50 MCF-7 [10] | IC50 L428 [11, 26] | tolerability at 100 mg/kg dose (in words) [12] | IC50 HCT-116 (CD70−) ([13]; Table 4, ~4 drugs/Ab) [ng/mL] | IC50 UMRC-3 [14, 28] [ng/mL] | IC50 L428 [15, 27] | IC50 L-428 [15, 28] [ng/mL] | IC50 U251 [16] [ng/mL] | IC50 Caki-1 [17, 27] | IC50 Caki-1 [17, 28] [ng/mL] | IC50 LP-1 [18, 28] [ng/mL] | other results |
| --- | --- | --- | --- | --- | --- | --- | --- | --- | --- | --- | --- | --- | --- | --- | --- | --- | --- | --- | --- | --- | --- |
| CC[C@H](C)[C@@H]([C@@H](CC(=O)N1CCC[C@H]1[C@H](OC)[C@@H](C)C(=O)N[C@@H](Cc1ccccc1)C(=O)O)OC)N(C)C(=O)[C@@H](NC(=O)[C@H](C(C)C)N(C)C(=O)CCCCCN1C(=O)C=CC1=O)C(C)C [MC-MMAP, Maleimidocaproyl-monomethylauristatin F, reference compound] ({Hexanoyl(6-maleimido)}-[NMeV]V[Dil][Dolaproine]F-OH) | 7 ng/mL (≈ 0.00757 µM) | 255 ng/mL (≈ 0.276 µM) | ~10,000 ng/mL | 42 (≈ 0.0454 µM) | 7400 (≈ 8 µM) | 626 (≈ 0.677 µM) | 3 (≈ 0.00324 µM) | 7 (≈ 0.00757 µM) | 2450 ng/mL (≈ 2.65 µM) | 3 ng/mL (≈ 0.00324 µM) | 1 ng/mL (≈ 0.00108 µM) |  |  |  |  |  |  |  |  |  |  |
| AF-Asparagine-(D)Lysine-diaminoethane-propionyl maleimide [AF-Asn-(D)Lys] |  |  |  |  |  |  |  |  |  |  |  | tolerated | >1000 | 32 | 24 ng/mL | 9 | 60 | 10 ng/mL | 6 | 479 | IC50 Karpas 299 ([7]; Table 6, ~4 drugs/Ab): 44 ng/mL; IC50 L540cy ([8]; Table 6, ~4 drugs/Ab): 4 ng/mL; IC50 UMRC-3 [14, 27]: 28 ng/mL; IC50 UMRC-3 [14, 29]: 32 ng/mL; IC50 UMRC-3 [14, 30]: 32 ng/mL; IC50 L-428 [15, 29]: 9 ng/mL; IC50 L-428 [15, 30]: 9 ng/mL; IC50 Caki-1 [17, 29]: 6 ng/mL; IC50 Caki-1 [17, 30]: 6 ng/mL; IC50 LP-1 [18, 27]: 417 ng/mL; IC50 LP-1 [18, 29]: 479 ng/mL; IC50 LP-1 [18, 30]: 479 ng/mL; IC50 786-0 [19, 27]: 19 ng/mL; IC50 786-O [19, 28]: 10 ng/mL; IC50 786-O [19, 29]: 10 ng/mL; IC50 786-O [19, 30]: 10 ng/mL; IC50 L428 ([11]; Table 6, ~4 drugs/Ab): 0.1 ng/mL |
| AF-Proline-(D)Lysine-diaminoethane-propionyl maleimide [AF-Pro-(D)Lys] |  |  |  |  |  |  |  |  |  |  |  |  | >1000 |  | >10,000 ng/mL |  | 5012 | >10,000 ng/mL |  |  | in vitro activity on CD70+ cells (in words) [20]: largely inactive; in vivo efficacy, tumor volume (in words) [21]: inactive |
| AM-Asparagine-(D)Lysine-diaminoethane-propionyl maleimide [AM-Asn-(D)Lys] | 1 ng/mL | 49 ng/mL | >10,000 ng/mL | 37 | 8362 | 506 | 11 | 31 | 7600 ng/mL | 24 ng/mL | 0.6 ng/mL |  |  |  |  |  |  |  |  |  | in vivo efficacy, tumor volume (in words) [22]: more potent than corresponding AW-Met-(D)Lys conjugates; IC50 Caki-2 [23, 31]: 47 ng/mL; IC50 Caki-2 [23, 32]: 26 ng/mL; IC50 HCT-116 (CD70−) ([13]; Table 5, ~4 drugs/Ab): >1000 ng/mL; IC50 L428 [15, 31]: 26 ng/mL; IC50 L428 [15, 32]: 29 ng/mL; IC50 Caki-1 [17, 31]: 20 ng/mL; IC50 Caki-1 [17, 32]: 16 ng/mL; in vivo efficacy, tumor volume (in words) [24]: more potent than corresponding AW-Met-(D)Lys conjugates; IC50 786-O [19, 31]: 20 ng/mL; IC50 786-O [19, 32]: 18 ng/mL |
| AW-Methionine-(D)Lysine-diaminoethane-propionyl maleimide [AW-Met-(D)Lys] | >10,000 ng/mL | >10,000 ng/mL | >10,000 ng/mL | 146 | 5217 | 422 | 11 | 17 | >10,000 ng/mL | >10,000 ng/mL | ~10,000 ng/mL |  |  |  |  |  |  |  |  |  | in vitro potency (in words) [25]: less active; IC50 Caki-2 [23, 31]: 37 ng/mL; IC50 Caki-2 [23, 32]: 18 ng/mL; IC50 HCT-116 (CD70−) ([13]; Table 5, ~4 drugs/Ab): >1000 ng/mL; IC50 L428 [15, 31]: >1000 ng/mL; IC50 L428 [15, 32]: >1000 ng/mL; IC50 Caki-1 [17, 31]: 22 ng/mL; IC50 Caki-1 [17, 32]: 19 ng/mL; IC50 786-O [19, 31]: 20 ng/mL; IC50 786-O [19, 32]: 17 ng/mL |
| MMAF-Asparagine-(D)Lysine-diaminoethane-propionyl maleimide [MMAF-Asn-(D)Lys] |  |  |  |  |  |  |  |  |  |  |  | animal loss |  | 19 |  | 7 |  |  | 7 | 110 | IC50 786-O [19, 28]: 9 ng/mL |
